Results published in publication PMC11845477, “Exploring the principles behind antibiotics with limited resistance” (Nature Communications, 2025).
Where a SMILES comes first, the peptide text is derived from it. Bridges are numbered along the chain shown (N, C = ends). [ ]: non-standard residue; d: D form. The star is where a group is joined. X2 = CC[C@H](C)CCCCC(=O)*; Dab = NCC[C@H](N)C(=O)O

Assays:
[1] = tested on: E. coli ATCC 25922 (SEN) and E. coli NCTC13846 (MDR); assay: microbe, parasite or virus in culture; type: cell-based, Escherichia coli; conditions: for MIC: across three biological replicates
Outline: (§1)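 Cation-adj. MHB2 (not for SCH79797); 11–16-step dilution series; 5 × 10^5 cells/mL; 37 °C, shaking, 18 h; duplicates. Growth by OD600; MIC at OD600 < 0.05. Relative MIC: evolved vs ancestor.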

[2] = tested on: A. baumannii ATCC 17978 (SEN) and A. baumannii ATCC BAA-1605 (MDR); assay: microbe, parasite or virus in culture; type: cell-based, Acinetobacter baumannii; conditions: for MIC: across three biological replicates
Outline: as §1

[3] = tested on: E. coli ATCC 25922 (SEN) and E. coli NCTC13846 (MDR); assay: Adaptive laboratory evolution (ALE), relative MIC of evolved lines; type: cell-based, Escherichia coli
Outline: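 Ten parallel populations per antibiotic–ancestor pair were evolved in MHB at 37 °C, starting near 50% growth-inhibiting drug. Every 72 h they were passaged into 0.5–2.5× increasing concentrations, keeping the highest-drug well with OD600 > 0.2.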

[4] = Escherichia coli ATCC 25922 (EC-SEN), ancestor strain, sheet fig 2a
[5] = Escherichia coli, Escherichia coli ATCC 25922 (EC-SEN)
[6] = Escherichia coli, Escherichia coli NCTC 13846 (EC-MDR)
[7] = Acinetobacter baumannii ATCC 17978 (AB-SEN), ancestor strain, sheet fig 2a
[8] = Acinetobacter baumannii, Acinetobacter baumannii ATCC 17978 (AB-SEN)
[9] = Acinetobacter baumannii, Acinetobacter baumannii ATCC BAA-1605 (AB-MDR)
[10] = EC-MDR (Escherichia coli NCTC 13846), evolved line 2
[11] = EC-MDR (Escherichia coli NCTC 13846), evolved line 10
[12] = EC-MDR, Escherichia coli NCTC 13846, evolved line 1
[13] = EC-MDR, Escherichia coli NCTC 13846, evolved line 6
[14] = EC-SEN (Escherichia coli ATCC 25922), evolved line 1 adapted to the named antibiotic
[15] = EC-SEN (Escherichia coli ATCC 25922), evolved line 2 adapted to the named antibiotic
[16] = EC-SEN (Escherichia coli ATCC 25922), evolved line 4
[17] = EC-SEN (Escherichia coli ATCC 25922), evolved line 5
[18] = EC-SEN (Escherichia coli ATCC 25922), evolved line 5 adapted to the named antibiotic
[19] = EC-SEN (Escherichia coli ATCC 25922), evolved line 7
[20] = EC-SEN (Escherichia coli ATCC 25922), evolved line 8
[21] = EC-SEN (Escherichia coli ATCC 25922), evolved line 10
[22] = EC-SEN, Escherichia coli ATCC 25922, evolved line 1
[23] = EC-SEN, Escherichia coli ATCC 25922, evolved line 2
[24] = EC-SEN (Escherichia coli ATCC 25922), evolved line 6

O=c1ccc2ncc(=O)n3c2n1C[C@H]3CN1CCC(NCc2cc3c(cn2)OCCC3)CC1 [Gepotidacin]
MIC of ancestor ([1]; E. coli NCTC 13846 (EC-MDR), ancestor strain, sheet fig 2a): 2 µg/mL | MIC of ancestor ([1]; EC-MDR, Escherichia coli NCTC 13846, ancestor strain): 2 µg/mL | MIC of ancestor ([1]; EC-SEN, Escherichia coli ATCC 25922, ancestor strain): 1 µg/mL | MIC of ancestor [1, 4]: 1 µg/mL | MIC [1, 5]: 1 µg/mL | MIC [1, 6]: 2 µg/mL | MIC of ancestor ([2]; AB-SEN, Acinetobacter baumannii ATCC 17978, ancestor strain): 2 µg/mL | MIC of ancestor [2, 7]: 2 µg/mL | MIC [2, 8]: 2 µg/mL | MIC [2, 9]: 32 µg/mL | Relative MIC [3, 10]: 32 | Relative MIC (log10) ([3]; EC-MDR (Escherichia coli NCTC 13846), evolved line 2 adapted to the named antibiotic): 1.505 | Relative MIC ([3]; EC-MDR (Escherichia coli NCTC 13846), evolved line 4): 16 | Relative MIC (log10) ([3]; EC-MDR (Escherichia coli NCTC 13846), evolved line 4 adapted to the named antibiotic): 1.204 | Relative MIC (log10) ([3]; EC-MDR (Escherichia coli NCTC 13846), evolved line 6 adapted to the named antibiotic): 1.505 | Relative MIC (log10) ([3]; EC-MDR (Escherichia coli NCTC 13846), evolved line 7 adapted to the named antibiotic): 1.505 | Relative MIC ([3]; EC-MDR (Escherichia coli NCTC 13846), evolved line 8): 16 | Relative MIC ([3]; EC-MDR (Escherichia coli NCTC 13846), evolved line 9): 32 | Relative MIC (log10) ([3]; EC-MDR (Escherichia coli NCTC 13846), evolved line 9 adapted to the named antibiotic): 1.505 | Relative MIC [3, 11]: 32 | Relative MIC ([3]; EC-MDR, Escherichia coli NCTC 13846, evolved line 1 versus ancestor): 16 | Relative MIC ([3]; EC-MDR, Escherichia coli NCTC 13846, evolved line 2 versus ancestor): 32 | Relative MIC ([3]; EC-MDR, Escherichia coli NCTC 13846, evolved line 3 versus ancestor): 8 | Relative MIC ([3]; EC-MDR, Escherichia coli NCTC 13846, evolved line 4 versus ancestor): 16 | Relative MIC ([3]; EC-MDR, Escherichia coli NCTC 13846, evolved line 6 versus ancestor): 32 | Relative MIC ([3]; EC-MDR, Escherichia coli NCTC 13846, evolved line 7 versus ancestor): 32 | Relative MIC ([3]; EC-MDR, Escherichia coli NCTC 13846, evolved line 8 versus ancestor): 16 | Relative MIC ([3]; EC-MDR, Escherichia coli NCTC 13846, evolved line 9 versus ancestor): 32 | Relative MIC ([3]; EC-MDR, Escherichia coli NCTC 13846, evolved line 10 versus ancestor): 32 | Relative MIC [3, 12]: 16 | Relative MIC ([3]; EC-MDR, Escherichia coli NCTC 13846, evolved line 3): 8 | Relative MIC [3, 13]: 32 | Relative MIC ([3]; EC-MDR, Escherichia coli NCTC 13846, evolved line 7): 32 | Relative MIC (log10) [3, 14]: 2.107 | Relative MIC (log10) [3, 15]: 1.806 | Relative MIC [3, 16]: 128 | Relative MIC (log10) ([3]; EC-SEN (Escherichia coli ATCC 25922), evolved line 4 adapted to the named antibiotic): 2.107 | Relative MIC [3, 17]: 128 | Relative MIC (log10) [3, 18]: 2.107 | Relative MIC [3, 19]: 64 | Relative MIC [3, 20]: 4 | Relative MIC [3, 21]: 128 | Relative MIC ([3]; EC-SEN, Escherichia coli ATCC 25922, evolved line 1 versus ancestor): 128 | Relative MIC ([3]; EC-SEN, Escherichia coli ATCC 25922, evolved line 2 versus ancestor): 64 | Relative MIC ([3]; EC-SEN, Escherichia coli ATCC 25922, evolved line 4 versus ancestor): 128 | Relative MIC ([3]; EC-SEN, Escherichia coli ATCC 25922, evolved line 5 versus ancestor): 128 | Relative MIC ([3]; EC-SEN, Escherichia coli ATCC 25922, evolved line 7 versus ancestor): 64 | Relative MIC ([3]; EC-SEN, Escherichia coli ATCC 25922, evolved line 8 versus ancestor): 4 | Relative MIC ([3]; EC-SEN, Escherichia coli ATCC 25922, evolved line 10 versus ancestor): 128 | Relative MIC [3, 22]: 128 | Relative MIC [3, 23]: 64

CN(C)c1cc(CNCC(C)(C)C)c(O)c2c1C[C@H]1C[C@H]3[C@H](N(C)C)C(O)=C(C(N)=O)C(=O)[C@@]3(O)C(O)=C1C2=O [Omadacycline]
MIC of ancestor ([1]; Escherichia coli ATCC 25922 (EC-SEN), ancestor): 2 µg/mL | MIC of ancestor [1, 4]: 2 µg/mL | MIC [1, 5]: 2 µg/mL | MIC [1, 6]: 16 µg/mL | MIC of ancestor ([2]; Acinetobacter baumannii ATCC 17978 (AB-SEN), ancestor): 0.5 µg/mL | MIC of ancestor [2, 7]: 0.5 µg/mL | MIC [2, 8]: 0.5 µg/mL | MIC [2, 9]: 16 µg/mL | Relative MIC (log10) [3, 14]: 0.9031 | Relative MIC (log10) [3, 15]: 0.9031 | Relative MIC ([3]; EC-SEN (Escherichia coli ATCC 25922), evolved line 3): 4 | Relative MIC [3, 16]: 8 | Relative MIC [3, 17]: 8 | Relative MIC (log10) [3, 18]: 0.9031 | Relative MIC [3, 24]: 4 | Relative MIC (log10) ([3]; EC-SEN (Escherichia coli ATCC 25922), evolved line 6 adapted to the named antibiotic): 0.6021 | Relative MIC [3, 19]: 2 | Relative MIC [3, 20]: 8 | Relative MIC ([3]; EC-SEN (Escherichia coli ATCC 25922), evolved line 9): 8 | Relative MIC (log10) ([3]; EC-SEN (Escherichia coli ATCC 25922), evolved line 9 adapted to the named antibiotic): 0.9031 | Relative MIC [3, 21]: 4 | Relative MIC ([3]; EC-SEN ATCC 25922, evolved line 1, evolved line vs ancestor): 8 | Relative MIC ([3]; EC-SEN ATCC 25922, evolved line 2, evolved line vs ancestor): 8 | Relative MIC ([3]; EC-SEN ATCC 25922, evolved line 3, evolved line vs ancestor): 4 | Relative MIC ([3]; EC-SEN ATCC 25922, evolved line 4, evolved line vs ancestor): 8 | Relative MIC ([3]; EC-SEN ATCC 25922, evolved line 5, evolved line vs ancestor): 8 | Relative MIC ([3]; EC-SEN ATCC 25922, evolved line 6, evolved line vs ancestor): 4 | Relative MIC ([3]; EC-SEN ATCC 25922, evolved line 7, evolved line vs ancestor): 2 | Relative MIC ([3]; EC-SEN ATCC 25922, evolved line 8, evolved line vs ancestor): 8 | Relative MIC ([3]; EC-SEN ATCC 25922, evolved line 9, evolved line vs ancestor): 8 | Relative MIC ([3]; EC-SEN ATCC 25922, evolved line 10, evolved line vs ancestor): 4 | Relative MIC [3, 22]: 8 | Relative MIC [3, 23]: 8

CC[C@H](C)CCCCC(=O)N[C@@H](CCN)C(=O)N[C@H](C(=O)N[C@@H](CCN)C(=O)N[C@H]1CCNC(=O)[C@H]([C@@H](C)O)NC(=O)[C@H](CCN)NC(=O)[C@H](CCN)NC(=O)[C@H](CC(C)C)NC(=O)[C@@H](Cc2ccccc2)NC(=O)[C@H](CCN)NC1=O)[C@@H](C)O [Polymyxin B] (X2-[Dab]T[Dab][Dab][Dab][dF]L[Dab][Dab]T; lactam 4-C (inferred); N-terminus assumed)
MIC ([1]; Escherichia coli ATCC 25922 (EC-SEN)): 1 µg/mL | MIC ([1]; Escherichia coli NCTC 13846 (EC-MDR)): 4 µg/mL | MIC ([2]; Acinetobacter baumannii ATCC 17978 (AB-SEN)): 1 µg/mL | MIC ([2]; Acinetobacter baumannii ATCC BAA-1605 (AB-MDR)): 1 µg/mL | Relative MIC (log10) [3, 10]: 1.505 log10 | Relative MIC (log10) ([3]; EC-MDR (Escherichia coli NCTC 13846), evolved line 5): 1.204 log10 | Relative MIC (log10) [3, 11]: 1.204 log10 | Relative MIC (log10) [3, 12]: 1.505 log10 | Relative MIC (log10) [3, 13]: 1.204 log10 | Relative MIC (log10) [3, 16]: 2.107 log10 | Relative MIC (log10) [3, 24]: 2.107 log10 | Relative MIC (log10) [3, 20]: 2.107 log10 | Relative MIC (log10) [3, 21]: 2.107 log10 | Relative MIC (log10) [3, 23]: 2.107 log10
